In PubChem BioAssay AID248 (DTP/NCI, 2004):
Values joined by “and” are separate entries in the source; they are usually repeats but may differ in a detail not shown here. Identical values can stand only once. Toxic doses and inconclusive results are not listed. Rule as the data show it: active = T/C of 150% or more; inactive = T/C below 125%.

Tested on: L1210 leukemia ip in BDF1 mice, survival T/C
Test: NCI In Vivo Anticancer Drug Screen. Data for tumor model L1210 Leukemia (intraperitoneal) in B6D2F1 (BDF1) mice
Settings: endpoint: mean survival time, higher = longer survival
In short: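 Antitumor effect is assessed in tumor-bearing animals. Survival in the compound arm is compared with a vehicle-dosed control arm and expressed as their quotient.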

[1] = dose: 100.0 mg/kg/injection, schedule: Q04DX003 (ip), vehicle: saline
[2] = dose: 100.0 mg/kg/injection, schedule: Q04DX003 (ip), vehicle: acetone
[3] = dose: 200.0 mg/kg/injection, schedule: Q04DX003 (ip), vehicle: acetone
[4] = dose: 400.0 mg/kg/injection, schedule: Q04DX003 (ip), vehicle: acetone

Measured: T/C

CN(C)CCC(c1ccccc1)c1cc(Cl)ccn1 (configuration not stated)
inactive: dose: 6.25 mg/kg/injection, schedule: Q01DX009 (ip), vehicle: saline 95 % of control | dose: 12.5 mg/kg/injection, schedule: Q01DX009 (ip), vehicle: saline 97 % of control | dose: 12.5 mg/kg/injection, schedule: Q04DX003 (ip), vehicle: saline 106 % of control | dose: 25.0 mg/kg/injection, schedule: Q01DX009 (ip), vehicle: saline 95 % of control | dose: 25.0 mg/kg/injection, schedule: Q04DX003 (ip), vehicle: saline 103 % of control | dose: 50.0 mg/kg/injection, schedule: Q01DX009 (ip), vehicle: saline 97 % of control | dose: 50.0 mg/kg/injection, schedule: Q04DX003 (ip), vehicle: saline 103 % of control | dose: 100.0 mg/kg/injection, schedule: Q01DX009 (ip), vehicle: saline 100 % of control | [1] 106 % of control

CCCCC(CN)c1cccc2ccccc12 (configuration not stated)
inactive: dose: 25.0 mg/kg/injection, schedule: Q04DX002 (ip), vehicle: saline with Tween-80 95 % of control | dose: 50.0 mg/kg/injection, schedule: Q04DX002 (ip), vehicle: saline with Tween-80 92 % of control

O=C(O)c1cnc(Cl)c(Br)c1
inactive: dose: 100.0 mg/kg/injection, schedule: Q04DX003 (ip), vehicle: saline with Tween-80 94 % of control | dose: 200.0 mg/kg/injection, schedule: Q04DX003 (ip), vehicle: saline with Tween-80 94 % of control | dose: 400.0 mg/kg/injection, schedule: Q04DX003 (ip), vehicle: saline with Tween-80 96 % of control

S=C([S][Sn]([c]1ccccc1)([c]1ccccc1)[c]1ccccc1)N(c1ccccc1)c1ccccc1
inactive: dose: 100.0 mg/kg/injection, schedule: Q01DX001 (ip), vehicle: steriod suspending solution 89 % of control | dose: 200.0 mg/kg/injection, schedule: Q01DX001 (ip), vehicle: steriod suspending solution 98 % of control | dose: 400.0 mg/kg/injection, schedule: Q01DX001 (ip), vehicle: steriod suspending solution 104 % of control

Clc1nc2nc3n(c2nc1Cl)CCC3(Br)Br
inactive: dose: 12.5 mg/kg/injection, schedule: Q01DX009 (ip), vehicle: other 112 % of control | dose: 25.0 mg/kg/injection, schedule: Q01DX009 (ip), vehicle: other 114 % of control | dose: 50.0 mg/kg/injection, schedule: Q01DX009 (ip), vehicle: other 112 % of control | dose: 100.0 mg/kg/injection, schedule: Q01DX009 (ip), vehicle: other 110 % of control

O=C(COc1ccc([N+](=O)[O-])cc1Cl)Nc1ccccc1
inactive: dose: 100.0 mg/kg/injection, schedule: Q01DX009 (ip), vehicle: acetone 90 % of control | [2] 95 % of control | [3] 95 % of control | [4] 94 % of control

O=C(O)c1cc(OCc2ccccc2)cc(OCc2ccccc2)c1
inactive: dose: 25.0 mg/kg/injection, schedule: Q01DX009 (ip), vehicle: carboxymethylcellulose (CMC) 102 % of control and 105 % of control | dose: 50.0 mg/kg/injection, schedule: Q01DX009 (ip), vehicle: carboxymethylcellulose (CMC) 101 % of control and 91 % of control | dose: 100.0 mg/kg/injection, schedule: Q01DX001 (ip), vehicle: carboxymethylcellulose (CMC) 101 % of control and 103 % of control | dose: 100.0 mg/kg/injection, schedule: Q01DX009 (ip), vehicle: carboxymethylcellulose (CMC) 92 % of control and 112 % of control and 91 % of control | dose: 100.0 mg/kg/injection, schedule: Q04DX002 (ip), vehicle: carboxymethylcellulose (CMC) 92 % of control and 88 % of control | dose: 100.0 mg/kg/injection, schedule: Q04DX003 (ip), vehicle: carboxymethylcellulose (CMC) 95 % of control and 97 % of control | dose: 200.0 mg/kg/injection, schedule: Q01DX001 (ip), vehicle: carboxymethylcellulose (CMC) 96 % of control and 107 % of control | dose: 200.0 mg/kg/injection, schedule: Q04DX002 (ip), vehicle: carboxymethylcellulose (CMC) 95 % of control and 97 % of control | dose: 200.0 mg/kg/injection, schedule: Q04DX003 (ip), vehicle: carboxymethylcellulose (CMC) 99 % of control and 91 % of control | dose: 400.0 mg/kg/injection, schedule: Q01DX001 (ip), vehicle: carboxymethylcellulose (CMC) 93 % of control and 96 % of control | dose: 400.0 mg/kg/injection, schedule: Q04DX002 (ip), vehicle: carboxymethylcellulose (CMC) 92 % of control and 97 % of control | dose: 400.0 mg/kg/injection, schedule: Q04DX003 (ip), vehicle: carboxymethylcellulose (CMC) 92 % of control and 100 % of control

Cc1nn(CCO)c(C)c1N=[N+]([O-])c1c(C)nn(CCO)c1C
inactive: dose: 25.0 mg/kg/injection, schedule: Q01DX009 (ip), vehicle: Klucel (hydroxypropylcellulose) (HPC) 93 % of control and 98 % of control | dose: 30.0 mg/kg/injection, schedule: Q01DX009 (ip), vehicle: saline 95 % of control | dose: 50.0 mg/kg/injection, schedule: Q01DX009 (ip), vehicle: Klucel (hydroxypropylcellulose) (HPC) 95 % of control and 107 % of control | dose: 50.0 mg/kg/injection, schedule: Q04DX002 (ip), vehicle: Klucel (hydroxypropylcellulose) (HPC) 101 % of control | dose: 100.0 mg/kg/injection, schedule: Q04DX002 (ip), vehicle: Klucel (hydroxypropylcellulose) (HPC) 96 % of control | dose: 200.0 mg/kg/injection, schedule: Q04DX002 (ip), vehicle: Klucel (hydroxypropylcellulose) (HPC) 96 % of control

COc1ccc2[nH]c3c(C)c4cc[n+](C)cc4c(C)c3c2c1
inactive: dose: 6.25 mg/kg/injection, schedule: Q04DX003 (ip), vehicle: saline sonified 105 % of control | dose: 10.0 mg/kg/injection, schedule: Q04DX003 (ip), vehicle: saline 115 % of control | dose: 12.5 mg/kg/injection, schedule: Q04DX003 (ip), vehicle: saline sonified 122 % of control | dose: 20.0 mg/kg/injection, schedule: Q04DX003 (ip), vehicle: saline 88 % of control

COCC(=O)Oc1cc(-c2ccc(C)cc2C)c(OC(=O)COC)c(-c2ccc(C)cc2C)c1
inactive: dose: 75.0 mg/kg/injection, schedule: Q04DX003 (ip), vehicle: Klucel (hydroxypropylcellulose) (HPC) 90 % of control | dose: 100.0 mg/kg/injection, schedule: Q01DX001 (ip), vehicle: Klucel (hydroxypropylcellulose) (HPC) 90 % of control | dose: 150.0 mg/kg/injection, schedule: Q04DX003 (ip), vehicle: Klucel (hydroxypropylcellulose) (HPC) 87 % of control | dose: 200.0 mg/kg/injection, schedule: Q01DX001 (ip), vehicle: Klucel (hydroxypropylcellulose) (HPC) 91 % of control | dose: 300.0 mg/kg/injection, schedule: Q04DX003 (ip), vehicle: Klucel (hydroxypropylcellulose) (HPC) 93 % of control and 94 % of control | dose: 400.0 mg/kg/injection, schedule: Q01DX001 (ip), vehicle: Klucel (hydroxypropylcellulose) (HPC) 101 % of control

CCOc1ccc2nc(C)sc2c1
inactive: [2] 97 % of control | [3] 95 % of control | [4] 93 % of control

CN(C)CCSc1ncnc2nc[nH]c12
inactive: [1] 94 % of control | dose: 200.0 mg/kg/injection, schedule: Q04DX003 (ip), vehicle: saline 99 % of control | dose: 400.0 mg/kg/injection, schedule: Q04DX003 (ip), vehicle: saline 89 % of control

O=S(=O)(Nc1cccc2ccccc12)c1cccc2cccnc12
inactive: dose: 100.0 mg/kg/injection, schedule: Q04DX003 (ip), vehicle: Klucel (hydroxypropylcellulose) (HPC) 90 % of control | dose: 200.0 mg/kg/injection, schedule: Q04DX003 (ip), vehicle: Klucel (hydroxypropylcellulose) (HPC) 91 % of control | dose: 400.0 mg/kg/injection, schedule: Q04DX003 (ip), vehicle: Klucel (hydroxypropylcellulose) (HPC) 91 % of control

CCCC/C(=N\NC(N)=S)c1ccc(F)cc1
inactive: dose: 8.0 mg/kg/injection, schedule: Q01DX Z (ip), vehicle: methylcellulose (MC) 95 % of control | dose: 15.0 mg/kg/injection, schedule: Q01DX Z (ip), vehicle: methylcellulose (MC) 89 % of control | dose: 30.0 mg/kg/injection, schedule: Q01DX Z (ip), vehicle: methylcellulose (MC) 98 % of control | dose: 30.0 mg/kg/injection, schedule: Q01DX Z (oral), vehicle: methylcellulose (MC) 86 % of control | dose: 60.0 mg/kg/injection, schedule: Q01DX Z (ip), vehicle: methylcellulose (MC) 87 % of control
